{"source": "paper PMC8635125", "about": "“A Novel Dibenzoxazepine Attenuates Intracellular Salmonella Typhimurium Oxidative Stress Resistance” (Microbiology Spectrum, 2021)", "key": {"[1]": {"system": "S. Typhimurium ATCC 14028", "test": "MIC assay (broth microdilution)", "assay_type": "cell-based, Salmonella Typhimurium", "conditions": "for MIC: Salmonella enterica; for R/I/S: ATCC 14028, CLSI criteria", "protocol": "(§1) The minimal inhibitory concentration (MIC) of each test compound against the individual bacterial strains was determined by the broth microdilution method following the guidelines recommended by the Clinical and Laboratory Standards Institute (CLSI) ([27])."}, "S. Typhimurium NL08.10": {"system": "S. Typhimurium NL08.10", "test": "MIC assay (broth microdilution)", "assay_type": "cell-based, Salmonella Typhimurium", "conditions": "Table S1(A); for MIC: Salmonella enterica, TYPHIMURIUM, NL08.10, read-out: MIC; for R/I/S: NL08.10, CLSI criteria", "protocol": "as §1"}, "S. Typhimurium 0911R": {"system": "S. Typhimurium 0911R", "test": "microbe, parasite or virus in culture", "assay_type": "cell-based, Salmonella Typhimurium", "conditions": "for MIC: Salmonella enterica, TYPHIMURIUM; for R/I/S: Table S1(A), 0911R, CLSI criteria", "protocol": "as §1"}, "[2]": {"system": "intracellular S. Typhimurium in RAW264.7 macrophages", "test": "microbe, parasite or virus in culture", "assay_type": "cell-based, Salmonella enterica serovar Typhimurium", "conditions": "for survival of intracellular Salmonella in macrophages, antibiotic alone: RAW264.7, 24 h", "protocol": "(§2) Overnight cultures of RFP-expressing S. Typhimurium were prepared for infection by 1:100 dilution in fresh LB broth and incubation for 2 h at 37°C. The bacteria were then collected by centrifugation at 6,000 × g for 3 min and suspended in phosphate-buffered saline (PBS; pH 7.2) to an optical density of 0.6 at 600 nm, which was equivalent to 5 × 10^8 CFU/mL. RAW264.7 macrophages were seeded in 96-well black clear-bottom plates (Greiner) and incubated for 20 h followed by infection with RFP-expressing S. Typhimurium at a multiplicity of infection (MOI) of 50 for 1 h. […] Afterward, the cells were washed and stained with CellTracker Green (Thermo Fisher Scientific) for 30 min in serum-free DMEM followed by fixation in 3.7% formaldehyde (Sigma-Aldrich) for 20 min and stained with 0.2 mg/L DAPI (4′,6-diamidino-2-phenylindole; AAT Bioquest) for 30 min. Images of individual wells were captured and analyzed using a high-content imaging system (ImageXpress Micro 4; Molecular Devices). The CC50 and 50% effective concentration (EC50) values against intracellular bacteria of each compound were determined using CalcuSyn software (Biosoft)."}, "[3]": {"test": "HCA cytotoxicity toward infected macrophages (nuclear staining)", "assay_type": "cell-based, murine", "conditions": "mouse, RAW264.7 macrophages infected with S. Typhimurium, infected RAW264.7 cells, read-out: 50% cytotoxic concentration (CC50) toward macrophages", "protocol": "as §2"}, "[4]": {"system": "ROS levels in Salmonella-infected RAW264.7 cells", "test": "Analysis of ROS in macrophages (H2DCFDA)", "assay_type": "cell-based, murine", "conditions": "1 h; SW14 at concentrations up to 8 μM", "protocol": "RAW264.7 macrophages were seeded in 96-well black plates and infected by S. Typhimurium ATCC 14028 at an MOI of 25 for 1 h. After infection, the cells were washed, exposed to 100 mg/L gentamicin for 1 h, washed with warm Krebs-Ringer phosphate buffer (KRP buffer; 120 mM NaCl, 5 mM KCl, 1.7 mM KH2PO4, 8.3 mM Na2HPO4, 10 mM glucose, 1 mM CaCl2, 1.5 mM MgCl2, pH 7.3) and stained with H2DCFDA at 37°C with 5% CO2 for 45 min. The cells were then washed with KRP buffer and treated with SW14 or PMA at the desired concentrations in KRP buffer with 10% FBS. Fluorescence signals at 488/525 nm (excitation/emission) were measured using a SpectraMax M5 Microplate Reader (Molecular Devices)."}, "S. Typhimurium SA10": {"system": "S. Typhimurium SA10", "test": "MIC assay (broth microdilution)", "assay_type": "cell-based, Salmonella Typhimurium", "conditions": "Table S1(B); for MIC: Salmonella enterica, TYPHIMURIUM, SA10; for R/I/S: SA10, CLSI criteria", "protocol": "as §1"}, "S. Typhimurium SB10": {"system": "S. Typhimurium SB10", "test": "MIC assay (broth microdilution)", "assay_type": "cell-based, Salmonella Typhimurium", "conditions": "Table S1(B); for MIC: Salmonella enterica, TYPHIMURIUM, SB10, read-out: MIC; for R/I/S: SB10, CLSI criteria", "protocol": "as §1"}, "[5]": {"conditions": "Table S1(A), ATCC 14028, read-out: MIC"}, "[6]": {"conditions": "Table S2, CAMH medium, read-out: MIC"}, "[7]": {"conditions": "Table S2, LB medium, read-out: MIC"}, "[8]": {"conditions": "Table S2, LPM medium, read-out: MIC"}}, "note": "Where two headings read alike, the source gives them in different places.", "data": [{"smiles": "[H]/N=C(/N)N[C@H]1[C@H](O)[C@@H](O)[C@H](O[C@@H]2O[C@@H](C)[C@](O)(C=O)[C@H]2O[C@@H]2O[C@@H](CO)[C@H](O)[C@@H](O)[C@@H]2NC)[C@@H](N/C(N)=N\\[H])[C@@H]1O", "note": "[Streptomycin]", "values": [{"measurement": "MIC", "setting": "[1]; [5]", "result": 32, "unit": "µg/mL"}, {"measurement": "MIC", "setting": "S. Typhimurium NL08.10", "result": "> 64", "unit": "µg/mL"}, {"measurement": "MIC", "setting": "S. Typhimurium 0911R", "result": "> 64", "unit": "µg/mL"}]}, {"smiles": "CC1(C)S[C@@H]2[C@H](NC(=O)[C@H](N)c3ccccc3)C(=O)N2[C@H]1C(=O)O", "note": "[Ampicillin]", "values": [{"measurement": "MIC", "setting": "[1]; [5]", "result": 16, "unit": "µg/mL"}, {"measurement": "MIC", "setting": "[1]; [6]", "result": 4, "unit": "µg/mL"}, {"measurement": "MIC", "setting": "[1]; [7]", "result": 4, "unit": "µg/mL"}, {"measurement": "MIC", "setting": "[1]; [8]", "result": 1, "unit": "µg/mL"}, {"measurement": "R/I/S", "setting": "[1]; Table S1(A)", "result": "I"}, {"measurement": "MIC", "setting": "S. Typhimurium NL08.10", "result": "> 64", "unit": "µg/mL"}, {"measurement": "R/I/S", "setting": "S. Typhimurium NL08.10", "result": "R"}, {"measurement": "MIC", "setting": "S. Typhimurium 0911R", "result": "> 64", "unit": "µg/mL"}, {"measurement": "R/I/S", "setting": "S. Typhimurium 0911R", "result": "R"}]}, {"smiles": "CN(C)[C@@H]1C(O)=C(C(N)=O)C(=O)[C@@]2(O)C(O)=C3C(=O)c4c(O)cccc4[C@@](C)(O)[C@H]3C[C@@H]12", "note": "[Tetracycline]", "values": [{"measurement": "MIC", "setting": "[1]; [5]", "result": 8, "unit": "µg/mL"}, {"measurement": "R/I/S", "setting": "[1]; Table S1(A)", "result": "I"}, {"measurement": "R/I/S", "setting": "S. Typhimurium NL08.10", "result": "R"}, {"measurement": "R/I/S", "setting": "S. Typhimurium 0911R", "result": "R"}]}, {"smiles": "CO[C@H]1/C=C/O[C@@]2(C)Oc3c(C)c(O)c4c(O)c(c(/C=N/N5CCN(C)CC5)c(O)c4c3C2=O)NC(=O)/C(C)=C\\C=C\\[C@H](C)[C@H](O)[C@@H](C)[C@@H](O)[C@@H](C)[C@H](OC(C)=O)[C@@H]1C", "note": "[Rifampicin]", "values": [{"measurement": "MIC", "setting": "[1]; [6]", "result": 16, "unit": "µg/mL"}, {"measurement": "MIC", "setting": "[1]; [7]", "result": 16, "unit": "µg/mL"}, {"measurement": "MIC", "setting": "[1]; [8]", "result": 4, "unit": "µg/mL"}]}, {"smiles": "CN1CCN(C2=Nc3ccccc3Oc3ccc(Cl)cc32)CC1", "note": "[Loxapine, loxapine]", "values": [{"measurement": "selectivity index (SI; CC50/EC50)", "setting": "[2]; CC50 RAW264.7 / EC50 intracellular Salmonella", "result": 16.3}, {"measurement": "EC50", "setting": "[2]; Salmonella enterica, RFP-expressing S. Typhimurium in RAW264.7, 24 h, with gentamicin 20 mg/L, HCA, read-out: 50% effective concentration (EC50) against intracellular Salmonella", "result": 5.4, "unit": "µM"}, {"measurement": "CC50 at 24 h", "setting": "[3]", "result": 88.2, "unit": "µM"}]}, {"smiles": "Cn1cnc(N)c2ncnc1-2", "note": "[3-MA, 3-methyladenine]", "values": [{"measurement": "relative number of intracellular bacteria", "setting": "[2]; 3-MA 10 mM, infected RAW264.7", "result": "increased significantly"}]}, {"smiles": "C=CC1=C(C(=O)O)N2C(=O)[C@@H](NC(=O)/C(=N\\OCC(=O)O)c3csc(N)n3)[C@H]2SC1", "note": "[cefixime]", "values": [{"measurement": "survival of intracellular Salmonella in macrophages, antibiotic alone", "setting": "[2]; HCA", "result": "inhibited the survival of intracellular Salmonella in macrophages in a dose-dependent manner"}]}, {"smiles": "O=C(O)c1cn(C2CC2)c2cc(N3CCNCC3)c(F)cc2c1=O", "note": "[Ciprofloxacin, ciprofloxacin]", "values": [{"measurement": "survival of intracellular Salmonella in macrophages, antibiotic alone", "setting": "[2]; HCA", "result": "inhibited the survival of intracellular Salmonella in macrophages in a dose-dependent manner"}]}, {"smiles": "CCCCCCCCCCCCCC(=O)O[C@@H]1[C@@H](C)[C@@]2(O)[C@@H](C=C(CO)C[C@]3(O)C(=O)C(C)=C[C@@H]23)[C@@H]2C(C)(C)[C@]12OC(C)=O", "note": "[PMA, phorbol 12-myristate 13-acetate]", "values": [{"measurement": "ROS level (H2DCFDA fluorescence signal) in infected macrophages", "setting": "[4]", "result": "significantly elevated"}]}, {"smiles": "CNC(C)C1CCC(N)C(OC2C(N)CC(N)C(OC3OCC(C)(O)C(NC)C3O)C2O)O1", "note": "(stereo not drawn) [Gentamicin, gentamicin]", "values": [{"measurement": "MIC", "setting": "[1]; [5]", "result": 2, "unit": "µg/mL"}, {"measurement": "MIC", "setting": "[1]; Table S1(B), ATCC 14028, read-out: MIC", "result": 2, "unit": "µg/mL"}, {"measurement": "R/I/S", "setting": "[1]; Table S1(A)", "result": "S"}, {"measurement": "R/I/S", "setting": "[1]; Table S1(B)", "result": "S"}, {"measurement": "MIC", "setting": "S. Typhimurium NL08.10", "result": 2, "unit": "µg/mL"}, {"measurement": "R/I/S", "setting": "S. Typhimurium NL08.10", "result": "S"}, {"measurement": "MIC", "setting": "S. Typhimurium SA10", "result": 0.5, "unit": "µg/mL"}, {"measurement": "R/I/S", "setting": "S. Typhimurium SA10", "result": "S"}, {"measurement": "MIC", "setting": "S. Typhimurium SB10", "result": 1, "unit": "µg/mL"}, {"measurement": "R/I/S", "setting": "S. Typhimurium SB10", "result": "S"}, {"measurement": "R/I/S", "setting": "S. Typhimurium 0911R", "result": "S"}]}, {"smiles": "O=C(N[C@H](CO)[C@H](O)c1ccc([N+](=O)[O-])cc1)C(Cl)Cl", "note": "[Chloramphenicol]", "values": [{"measurement": "MIC", "setting": "[1]; [5]", "result": 16, "unit": "µg/mL"}, {"measurement": "R/I/S", "setting": "[1]; Table S1(A)", "result": "I"}, {"measurement": "MIC", "setting": "S. Typhimurium NL08.10", "result": 32, "unit": "µg/mL"}, {"measurement": "R/I/S", "setting": "S. Typhimurium NL08.10", "result": "R"}, {"measurement": "R/I/S", "setting": "S. Typhimurium 0911R", "result": "R"}]}, {"smiles": "CN[C@H](CC(C)C)C(=O)N[C@H]1C(=O)N[C@@H](CC(N)=O)C(=O)N[C@H]2C(=O)N[C@H]3C(=O)N[C@H](C(=O)N[C@H](C(=O)O)c4cc(O)cc(O)c4-c4cc3ccc4O)[C@H](O)c3ccc(c(Cl)c3)Oc3cc2cc(c3O[C@@H]2O[C@H](CO)[C@@H](O)[C@H](O)[C@H]2O[C@H]2C[C@](C)(N)[C@H](O)[C@H](C)O2)Oc2ccc(cc2Cl)[C@H]1O", "note": "[Vancomycin]", "values": [{"measurement": "MIC", "setting": "[1]; Table S2, CAMH medium", "result": 2050, "unit": "µg/mL"}, {"measurement": "MIC", "setting": "[1]; Table S2, LB medium", "result": 512, "unit": "µg/mL"}, {"measurement": "MIC", "setting": "[1]; Table S2, LPM medium", "result": 128, "unit": "µg/mL"}]}, {"smiles": "CC1COc2c(N3CCN(C)CC3)c(F)cc3c(=O)c(C(=O)O)cn1c23", "note": "(stereo not drawn) [Ofloxacin]", "values": [{"measurement": "MIC", "setting": "[1]", "result": "< 0.125", "unit": "µg/mL"}, {"measurement": "R/I/S", "setting": "[1]; Table S1(B)", "result": "S"}, {"measurement": "MIC", "setting": "S. Typhimurium SA10", "result": 8, "unit": "µg/mL"}, {"measurement": "R/I/S", "setting": "S. Typhimurium SA10", "result": "R"}, {"measurement": "MIC", "setting": "S. Typhimurium SB10", "result": 8, "unit": "µg/mL"}, {"measurement": "R/I/S", "setting": "S. Typhimurium SB10", "result": "R"}]}]}
